Assay results: patent US10647673B2, “Acetophenone compound, preparation method thereof, and application thereof in fatty liver prevention and treatment” (Nanjing Bioenergy Medicine Science & Technology Co., Ltd., priority 2017, dated 2020)
Entries after “also recorded” stand apart in the source; their conditions may differ.

Experiments:
Type in all cases: in vivo
[1] = tested on: fatty liver of the SD rats; experiment: Pathological sections and grading of fatty liver of SD rats; conditions: compounds 80 mg/kg, Sim 10 mg/kg, OCA 10 mg/kg
Experimental: 500 g of lard oil was taken, placed in a container, and heated to melt. When the temperature rose to 100° C., it was added with 200 g of cholesterol to dissolve completely, and then further added with 20 g of propylthiouracil. The resulted mixture was stirred well, and added with 500 ml of Tween 80 after dissolution, resulting in an oil phase. At the same time, 600 mL of distilled water and 400 mL of 1,2-propanediol were taken and heated to 60° C. in a water bath, then were added with 40 g of sodium deoxycholate. The resulted mixture was stirred well until realizing complete dissolution, so as to give an aqueous phase. The aqueous phase was added into the oil phase and mixed well to give a lipid emulsion. The lipid emulsion was heated in a water bath of 37° C. before intragastric administration to animals.
An appropriate amount of pharmaceutical was weighed, added with 0.5% CMC-Na, and mixed homogeneously by grinding. There are groups for Compound 01 (80 mg/kg), Compound 02 (80 mg/kg), Compound 03 (80 mg/kg), Compound 04 (80 mg/kg), Compound 05 (80 mg/kg), Compound 06 (80 mg)/kg), Compound 07 (80 mg/kg), Compound 08 (80 mg/kg), Compound 09 (80 mg/kg), Compound 10 (80 mg/kg), Compound 11 (80 mg/kg), Compound 12 (80 mg/kg), Compound 13 (80 mg/kg), Compound 14 (80 mg/kg), Compound 15 (80 mg/kg), Compound 16 (80 mg/kg), Compound 17 (80 mg/kg), Compound 18 (80 mg/kg), Compound 19 (80 mg/kg), Compound 20 (80 mg/kg), Compound 21 (80 mg/kg), and Compound 22 (80 mg/kg).
Male SD rats weighing 180-200 g were fed adaptively for 7 days. Based on body weight, 10 animals were used as control and the remaining animals were intragastrically administered with the lipid emulsion every day, 1 ml/100 g body weight for 14 days. After fasting for 12 hours, 1 mL of blood was collected from the orbits of the animals, and was determined by Hitachi Automatic Biochemical Analyzer 7080 for serum cholesterol (CHO), triglyceride (TG), low density lipoprotein (LDL-C) and high density lipoprotein (HDL-C).
The modeled rats were continued with the intragastric administration of the lipid emulsion. At the same time, the pharmaceutical-administered groups were administrated with a corresponding dose of pharmaceuticals, while the Model group was administrated with an equal volume of solvent. The pharmaceutical-administered groups were administrated with the lipid emulsion in the morning, and with the pharmaceuticals in the afternoon. The animals were measured for the body weight once a week, and were observed. After 14 days of continuous administration, 1 mL of blood was collected from the orbits, and was determined for the contents of triglyceride, cholesterol, low density lipoprotein and high density lipoprotein in blood serum.

ob/ob mice = experiment: Weight loss experiment in ob/ob mice; conditions: for body weight of ob/ob mice: orlistat 40 mg/kg, other pharmaceuticals 80 mg/kg intragastric, x ± s, n = 6; for effect on body weight compared with Orlistat (in words) / effect on body weight (in words): ob/ob mice; for effect on body weight compared with Orlistat (in words): 80 mg/kg vs orlistat 40 mg/kg; for effect on body weight (in words): 80 mg/kg, as compared with Model group
Text: […] ob/ob mice, male, 18-20 g of body weight, fed adaptively for one week before use. The mice were randomly divided into Control group, Model group, Orlistat group, Compound 13 group and Compound 14 group, with 6 mice in each group.
(§1) appropriate amounts of orlistat, Compound 13 and Compound 14 were weighed respectively, added with 0.5% CMC-Na and grinded to dissolve.
After feeding for one week, the mice were intragastrically administrated with the pharmaceuticals except the mice of Control group. The dose was 40 mg/kg body weight for orlistat, 80 mg/kg for the other pharmaceuticals. The body weight of the mice was weighed every week during the experiment which lasted for 28 days.

[2] = tested on: nutritive obesity C57 mice; experiment: Weight loss experiment in nutritive obesity C57 mice; set-up: key to body weight of mice: body weight in g; conditions: for body weight of mice: high-fat diet, orlistat 40 mg/kg, Compounds 13 and 14 80 mg/kg intragastric, x ± s, n = 6; for effect on body weight compared with Orlistat (in words) / effect on body weight (in words): nutritive obesity C57 mice; for effect on body weight compared with Orlistat (in words): 80 mg/kg vs orlistat 40 mg/kg; for effect on body weight (in words): 80 mg/kg, as compared with Model group
Text: C57 mice, male, 18-20 g of body weight. The mice were randomly divided into Control group, Model group, Orlistat group, Compound 13 group and Compound 14 group, with 6 mice in each group.
as §1
The mice in Control group were fed with normal diet, and the other mice were fed with high-fat diet. All of the mice had free access to water. After one week of feeding, the pharmaceuticals were intragastrically administrated. The dose was 40 mg/kg body weight for orlistat, 80 mg/kg for Compounds 13 and 14. The body weight of the mice was weighed every week during the experiment which lasted for 28 days.

[3] = Experiment Day 0, in g (unit assumed)
[4] = Experiment Day 7, in g (unit assumed)
[5] = Experiment Day 14, in g (unit assumed)
[6] = Experiment Day 21, in g (unit assumed)
[7] = Experiment Day 28, in g (unit assumed)

Row | SMILES | Pathological grading: Steatotic hepatocytes ([1]; animal 1) | Pathological grading: Steatotic hepatocytes ([1]; animal 3) | Pathological grading: Steatotic hepatocytes ([1]; animal 4) | body weight of ob/ob mice (ob/ob mice; [3]) | body weight of ob/ob mice (ob/ob mice; [4]) | body weight of ob/ob mice (ob/ob mice; [5]) | body weight of ob/ob mice (ob/ob mice; [6]) | body weight of ob/ob mice (ob/ob mice; Experiment Day 28) | effect on body weight compared with Orlistat (in words) (ob/ob mice) | effect on body weight (in words) (ob/ob mice) | body weight of mice [2, 3] | body weight of mice [2, 4] | body weight of mice [2, 5] | body weight of mice [2, 6] | body weight of mice ([2]; Experiment Day 28) | effect on body weight compared with Orlistat (in words) [2] | effect on body weight (in words) [2] | also measured
1 | CC(=O)c1ccc(O)c(OC(=O)C(C)(C)CCCOc2cc(C)ccc2C)c1 [Compound 13] | + (25-45% of hepatocytes undergoing steatosis) | + (25-45% of hepatocytes undergoing steatosis) | ++ (45-65% of hepatocytes undergoing steatosis) | 20.74 ± 1.10 | 21.43 ± 0.61 | 22.10 ± 0.16 | 24.53 ± 1.76 | 26.10 ± 1.95 | better effect than Orlistat | obvious effects on weight loss; also recorded: significantly decrease the body weight of the ob/ob mice | 17.20 ± 1.92 | 19.97 ± 0.57 | 21.04 ± 0.29 | 22.14 ± 0.31 | 23.25 ± 0.26 | better effect than Orlistat | obvious effects on weight loss; also recorded: significantly decrease the body weight of the mice from Day 14 | Pathological grading: Steatotic hepatocytes ([1]; animal 2): ++ (45-65% of hepatocytes undergoing steatosis); Pathological grading: Steatotic hepatocytes ([1]; animal 5): ++ (45-65% of hepatocytes undergoing steatosis)
2 | CC(=O)c1ccc(O)c(OC(=O)c2cccnc2)c1 [Compound 14] | + (25-45% of hepatocytes undergoing steatosis) | + (25-45% of hepatocytes undergoing steatosis) | + (25-45% of hepatocytes undergoing steatosis) | 20.79 ± 0.39 | 21.22 ± 0.38 | 22.18 ± 0.42 | 24.10 ± 0.45 | 26.17 ± 0.86 | better effect than Orlistat | obvious effects on weight loss; also recorded: significantly decrease the body weight of the ob/ob mice | 17.21 ± 1.57 | 19.83 ± 0.71 | 20.87 ± 0.75 | 21.89 ± 0.77 | 22.92 ± 0.88 | better effect than Orlistat | obvious effects on weight loss; also recorded: significantly decrease the body weight of the mice from Day 14 | Pathological grading: Infiltration of inflammatory cells ([1]; animal 1): 0
3 | CCCCCCCCCCC[C@@H](C[C@@H]1OC(=O)[C@H]1CCCCCC)OC(=O)[C@H](CC(C)C)NC=O [Orlistat, reference compound] | – | – | – | 20.53 ± 0.50 | 22.82 ± 1.79 | 23.98 ± 1.85 | 26.86 ± 1.99 | – | – | – | 18.28 ± 0.65 | 20.29 ± 0.63 | 21.39 ± 0.70 | 22.51 ± 0.73 | – | – | – | body weight of ob/ob mice (ob/ob mice; [7]): 31.23 ± 2.31; body weight of mice [2, 7]: 24.47 ± 0.79
